Experimental data from patent publication US20250320215A1, “SALTS OF N-[4-(4-[[2-(DIMETHYLAMINO)ETHYL]AMINO]-3-METHYL-1H-PYRAZOLO[3,4-D]PYRIMIDIN-6-YL)-2-FLUOROPHENYL]-2,5-DIFLUOROBENZENESULFONAMIDE AND CRYSTALLINE FORMS THEREOF” (THRYV THERAPEUTICS INC, priority 2022, published 2025).
Where two headings read alike, the source gives them in different places. Each block holds one compound with its values, some of them ahead of it.

Experiments:
Type in all cases: physicochemical
[1] = Thermal treatment (heat-cool cycle by DSC, XRPD of resulting solids)
Protocol: Compound 3, Form E was treated with heat-cool cycle by DSC. The resulted solids were characterized by XRPD. Compound 3, Form E, was converted to Compound 3, Form D after desolvation.
Compound 4 Form B was treated with heat-cool cycle by DSC. The resulted solids were checked by XRPD. […] The water was excluded at elevated temperature, then entered in the crystal lattice again at room temperature.
Compound 4 Form C and trace Form B was treated with heat-cool cycle by DSC. The resulted solids were checked by XRPD. The sample was converted to low crystalline (LC) Form B after heating to 175° C.
Compound 4 Form D was treated with heat-cool cycle by DSC. The resulted solids were checked by XRPD. The sample kept unchanged after heating to 140° C., but was converted to a new low crystalline form after heating to 210° C. which was assigned to Form F.

[2] = Water activity study (competition of forms, XRPD); settings: for XPRD results, Form: room temperature
Protocol: Water activity study was performed using Compound 3 Form B (anhydrate) as the input material in EtOH/Water with different water content at RT. About 5 mg of Compound 3, Form B was used to prepare saturated solutions and the solutions were filtered by syringe at RT. 5 mg of Compound 3, Form D were added in the 1 mL of filtrate, and the suspension was slurried at RT for 3 and 7 days. The solids collected after filtration were analyzed by XRPD.
Protocol: excess amount of Compound 4 Form B was used to prepare saturated solutions. 6-8 mg each of Compound 4 Form B and Form D were added in the solutions. The suspension was slurried at room temperature for the corresponding times. Residual solids were collected by filtration with syringe filter, and characterized by XRPD.

[3] = Estimated solubility by solvent addition method via visual assessment; settings: thermodynamic from solid, read-out: Solubility, Concentration
Protocol: Solubility of Compound 3 Form B was estimated in 30 solvents at room temperature and in 9 organic solvents at 70° C. using solvent addition method via visual assessment.
Protocol: about 3 mg of Compound 3 Form B was weighed into a sample vial and the solvent was added gradually with vortex until the drug solution was clear by observation or a total of 2 mL solvent was added. Then, the estimated solubility (mg/mL) was calculated.
Solubility of Compound 4, Form B was estimated in 18 solvents at room temperature using solvent addition method via visual assessment. About 3 mg of Compound 4, Form B was weighed into a sample vial and the solvent was added gradually with vortex until the solution was clear by observation or a total of 2 mL solvent was added. Then, the estimated solubility (mg/mL) was calculated.

[4] = Slurry study evaluated by XRPD
Protocol: About 20 mg of Compound 3, Form B was weighed into a sample vial and then 1 mL of solvent was added to make a suspension. The suspension was stirred at room temperature or 50° C. for 3 days and 11 days. Then, the wet solid was collected by filtration and analyzed by XRPD.
20-30 mg of Compound 4 Form B was added in 1 mL of selected solvents at room temperature or 50° C. The suspension was slurried at room temperature or 50° C. for 3 days and 11 days. The wet solids collected from filtration were examined by XRPD. There were four crystal forms obtained by slurrying, including di-mesylate Forms B, C and D as well as mono-mesylate Form G.

[5] = Competitive slurry experiment evaluated by XRPD
Description: Competitive slurry experiment for Compound 4 Form B and Form D Competitive slurry experiments of Compound 4 Form B and Form D were set up to verify the relative stability relationship. It was supposed that Form D was the stable form at high water activity, while Form B was stable at low water activity. All the solvents used was analytical grade and should contained trace amounts of water. […] The water activity at elevated temperature is lower than at low temperature. Therefore, Form B was obtained in ACN at 50° C., while Form D was the stable form at room temperature.

[6] = slurry at 50° C., printed at MeOH

Structure (SMILES): Cc1n[nH]c2nc(-c3ccc(NS(=O)(=O)c4cc(F)ccc4F)c(F)c3)nc(NCCN(C)C)c12.Cl [Compound 3 Form B + D]
XPRD results 3 D/Wet, 7 D/Wet, 7 D/Dried ([2]; EtOH/Water 24.7/75.3 (V/%), aW 0.92, RT): Form D + extra peak
XPRD results 3 D/Wet, 7 D/Wet, 7 D/Dried ([2]; EtOH/Water 58.1/41.9 (V/%), aW 0.82, RT): Form D + extra peak
XPRD results 3 D/Wet, 7 D/Wet, 7 D/Dried ([2]; EtOH/Water 82.9/17.1 (V/%), aW 0.64, RT): Form D
XPRD results 3 D/Wet, 7 D/Wet, 7 D/Dried ([2]; EtOH/Water 92.8/7.2 (V/%), aW 0.41, RT): Form D
XPRD results 3 D/Wet, 7 D/Wet, 7 D/Dried ([2]; EtOH/Water 97/3 (V/%), aW 0.21, RT): Form D
XPRD results 3 D/Wet, 7 D/Wet, 7 D/Dried ([2]; EtOH/Water 98.4/1.6 (V/%), aW 0.12, RT): Form D

Structure (SMILES): Cc1n[nH]c2nc(-c3ccc(NS(=O)(=O)c4cc(F)ccc4F)c(F)c3)nc(NCCN(C)C)c12.Cl [Compound 3 Form B]
solubility ([3]; aqueous with cosolvent or surfactant or cyclodextrin, Acetone/Water (1/1), RT): < 1500 µg/mL
solubility ([3]; organic solvent or mixture, 1,4-Dioxane, RT): < 1500 µg/mL
solubility ([3]; organic solvent or mixture, 2-Me-THF, RT): < 1500 µg/mL
solubility ([3]; organic solvent or mixture, ACN, RT): < 1500 µg/mL
solubility ([3]; organic solvent or mixture, ACN/Water (9/1), RT): 1500 to 1700 µg/mL
solubility ([3]; organic solvent or mixture, Acetic acid, 70° C.): < 1500 µg/mL
solubility ([3]; organic solvent or mixture, Acetic acid, RT): < 1500 µg/mL
solubility ([3]; organic solvent or mixture, Acetone, 70° C.): < 1500 µg/mL
solubility ([3]; organic solvent or mixture, Acetone, RT): < 1500 µg/mL
solubility ([3]; organic solvent or mixture, Acetone/MeOH (1/1), RT): 1500 to 1600 µg/mL
solubility ([3]; organic solvent or mixture, Benzyl alcohol, 70° C.): < 1500 µg/mL
solubility ([3]; organic solvent or mixture, Benzyl alcohol, RT): < 1500 µg/mL
solubility ([3]; organic solvent or mixture, DCM, RT): < 1500 µg/mL
solubility ([3]; organic solvent or mixture, DCM/MeOH (3/1), RT): < 1500 µg/mL
solubility ([3]; organic solvent or mixture, DMA, 70° C.): 20000 to 40000 µg/mL
solubility ([3]; organic solvent or mixture, DMA, RT): 3000 to 3300 µg/mL
solubility ([3]; organic solvent or mixture, DMF, 70° C.): 16700 to 20000 µg/mL
solubility ([3]; organic solvent or mixture, DMF, RT): 2000 to 3000 µg/mL
solubility ([3]; organic solvent or mixture, DMSO, 70° C.): > 40000 µg/mL
solubility ([3]; organic solvent or mixture, DMSO, RT): 5400 to 5500 µg/mL
solubility ([3]; organic solvent or mixture, EA, RT): < 1500 µg/mL
solubility ([3]; organic solvent or mixture, EtOH, 70° C.): < 1500 µg/mL
solubility ([3]; organic solvent or mixture, EtOH, RT): < 1500 µg/mL
solubility ([3]; organic solvent or mixture, IPA, RT): < 1500 µg/mL
solubility ([3]; organic solvent or mixture, IPAC, RT): < 1500 µg/mL
solubility ([3]; organic solvent or mixture, IPE, RT): < 1500 µg/mL
solubility ([3]; organic solvent or mixture, MEK, RT): < 1500 µg/mL
solubility ([3]; organic solvent or mixture, MIBK, RT): < 1500 µg/mL
solubility ([3]; organic solvent or mixture, MTBE, RT): < 1500 µg/mL
solubility ([3]; organic solvent or mixture, Me-cyclohexane, RT): < 1500 µg/mL
solubility ([3]; organic solvent or mixture, MeOH, RT): < 1500 µg/mL
solubility ([3]; organic solvent or mixture, MeOH/Water (9/1), RT): 2500 to 3000 µg/mL
solubility ([3]; organic solvent or mixture, NMP, 70° C.): > 40000 µg/mL
solubility ([3]; organic solvent or mixture, NMP, RT): 3000 to 3800 µg/mL
solubility ([3]; organic solvent or mixture, THF, 70° C.): < 1500 µg/mL
solubility ([3]; organic solvent or mixture, THF, RT): < 1500 µg/mL
solubility ([3]; organic solvent or mixture, THF/Water (9/1), RT): 1600 to 1900 µg/mL
solubility ([3]; organic solvent or mixture, n-Heptane, RT): < 1500 µg/mL
solubility ([3]; Water, RT): < 1500 µg/mL
XRPD Day 3/Wet [4, 6]: Form D
XRPD Day 11/Wet [4, 6]: Form D
XRPD Day 3/Wet ([4]; slurry at RT, 1,4-Dioxane 1 mL, cell apparently merged down for IPA, IPAC, MTBE, Water, n-Heptane, Acetone, EA, ACN, DCM, MIBK, MEK): Form D
XRPD Day 3/Wet ([4]; slurry at RT, EtOH 1 mL): Form D
XRPD Day 3/Wet ([4]; slurry at RT, MeOH 1 mL): Amorphous
XRPD Day 3/Wet ([4]; slurry at RT, THF 1 mL): Amorphous
XRPD Day 11/Wet ([4]; slurry at RT, printed at MeOH): Form D

Continued, values first:

XRPD Resulting Form ([1]; Heated to 175° C. at 10° C./min, and cooled to 25° C. at 5° C./min): Form B (LC)
Structure (SMILES): Cc1n[nH]c2nc(-c3ccc(NS(=O)(=O)c4cc(F)ccc4F)c(F)c3)nc(NCCN(C)C)c12 [Compound 4 Form C + trace Form B]

XPRD results, Form ([2]; ACN/water, aW 0.37, 8 d): Form D
XPRD results, Form ([2]; ACN/water, aW 0.37, 14 d): Form D
XPRD results, Form ([2]; ACN/water, aW 0.58, 8 d): Form D
XPRD results, Form ([2]; ACN/water, aW 0.58, 14 d): Form D
XPRD results, Form ([2]; ACN/water, aW 0.78, 8 d): Form D
XPRD results, Form ([2]; ACN/water, aW 0.78, 14 d): Form D
XPRD results, Form ([2]; ACN/water, aW 0.90, 8 d): Form D
XPRD results, Form ([2]; ACN/water, aW 0.90, 14 d): Form D
XPRD results, Form ([2]; MeOH/water, aW 0.08, 3 d): Forms B + D
XPRD results, Form ([2]; MeOH/water, aW 0.08, 7 d): Form B
XPRD results, Form ([2]; MeOH/water, aW 0.16, 3 d): Form D
XPRD results, Form ([2]; MeOH/water, aW 0.16, 7 d): Form D
Results 8 d (XRPD) ([5]; ACN, 50° C.): Form B
Results 14 d (XRPD) ([5]; ACN, 50° C.): Form B
Results 8 d (XRPD) ([5]; ACN, RT): Form B + Form D
Results 14 d (XRPD) ([5]; ACN, RT): Form D
Results 8 d (XRPD) ([5]; IPAC, 50° C.): Form D
Results 14 d (XRPD) ([5]; IPAC, 50° C.): Form D
Results 8 d (XRPD) ([5]; IPAC, RT): Form D
Results 14 d (XRPD) ([5]; IPAC, RT): Form D
Results 8 d (XRPD) ([5]; MeOH, 50° C.): Form B
Results 14 d (XRPD) ([5]; MeOH, 50° C.): Form B
Results 8 d (XRPD) ([5]; MeOH, RT): Form B
Results 14 d (XRPD) ([5]; MeOH, RT): Form B
Structure (SMILES): Cc1n[nH]c2nc(-c3ccc(NS(=O)(=O)c4cc(F)ccc4F)c(F)c3)nc(NCCN(C)C)c12 [Compound 4 Forms B + D]

XRPD Resulting Form ([1]; Heated to 114° C. at 10° C./min, and cooled to 25° C. at 5° C./min): Form E
XRPD Resulting Form ([1]; Heated to 160° C. at 10° C./min, and cooled to 25° C. at 5° C./min): Form D
Structure (SMILES): Cc1n[nH]c2nc(-c3ccc(NS(=O)(=O)c4cc(F)ccc4F)c(F)c3)nc(NCCN(C)C)c12.Cl [Compound 3 Form E]
